{"source": "ChEMBL document CHEMBL1151662", "about": "“Insect Antifeedant Activity of Four Prieurianin-Type Limonoids” (1985)", "type_in_all_cases": "functional", "key": {"Epilachna varivestis [1]": {"tested_on": "Epilachna varivestis", "test": "Insecticidal activity against mexican bean beetle third instar larvae at 1.5 ug/cm2 applied on upper surface of circular leaf disk after 6 days"}, "Spodoptera eridania [2]": {"tested_on": "Spodoptera eridania", "test": "Insecticidal activity against southern armyworm third instar larvae at 19.8 ug/cm2 applied on upper surface of circular leaf disk after 6 day"}, "Heliothis virescens [3]": {"tested_on": "Heliothis virescens", "test": "Insecticidal activity against tobacco budworm third instar larvae at 6 ug/cm2 applied on upper surface of circular leaf disk after 2 days"}, "Heliothis virescens [4]": {"tested_on": "Heliothis virescens", "test": "Insecticidal activity against tobacco budworm third instar larvae at 1.5 ug/cm2 applied on upper surface of circular leaf disk after 2 days"}, "Epilachna varivestis [5]": {"tested_on": "Epilachna varivestis", "test": "Insecticidal activity against mexican bean beetle third instar larvae at 6 ug/cm2 applied on upper surface of circular leaf disk after 2 days"}, "Epilachna varivestis [6]": {"tested_on": "Epilachna varivestis", "test": "Insecticidal activity against mexican bean beetle third instar larvae at 19.8 ug/cm2 applied on upper surface of circular leaf disk after 2 days"}, "Heliothis virescens [7]": {"tested_on": "Heliothis virescens", "test": "Insecticidal activity against tobacco budworm third instar larvae at 19.8 ug/cm2 applied on upper surface of circular leaf disk after 6 days"}, "Spodoptera eridania [8]": {"tested_on": "Spodoptera eridania", "test": "Insecticidal activity against southern armyworm third instar larvae at 1.5 ug/cm2 applied on upper surface of circular leaf disk after 6 days"}, "Heliothis virescens [9]": {"tested_on": "Heliothis virescens", "test": "Insecticidal activity against tobacco budworm third instar larvae at 1.5 ug/cm2 applied on upper surface of circular leaf disk after 6 days"}, "Spodoptera eridania [10]": {"tested_on": "Spodoptera eridania", "test": "Insecticidal activity against southern armyworm third instar larvae at 6 ug/cm2 applied on upper surface of circular leaf disk after 6 days"}, "Epilachna varivestis [11]": {"tested_on": "Epilachna varivestis", "test": "Insecticidal activity against mexican bean beetle third instar larvae at 1.5 ug/cm2 applied on upper surface of circular leaf disk after 2 days"}, "Epilachna varivestis [12]": {"tested_on": "Epilachna varivestis", "test": "Insecticidal activity against mexican bean beetle third instar larvae at 19.8 ug/cm2 applied on upper surface of circular leaf disk after 6 days"}, "Spodoptera eridania [13]": {"tested_on": "Spodoptera eridania", "test": "Insecticidal activity against southern armyworm third instar larvae at 19.8 ug/cm2 applied on upper surface of circular leaf disk after 2 days"}, "Spodoptera eridania [14]": {"tested_on": "Spodoptera eridania", "test": "Insecticidal activity against southern armyworm third instar larvae at 6 ug/cm2 applied on upper surface of circular leaf disk after 2 days"}, "Heliothis virescens [15]": {"tested_on": "Heliothis virescens", "test": "Insecticidal activity against tobacco budworm third instar larvae at 19.8 ug/cm2 applied on upper surface of circular leaf disk after 2 days"}, "Heliothis virescens [16]": {"tested_on": "Heliothis virescens", "test": "Insecticidal activity against tobacco budworm third instar larvae at 6 ug/cm2 applied on upper surface of circular leaf disk after 6 days"}, "Spodoptera eridania [17]": {"tested_on": "Spodoptera eridania", "test": "Insecticidal activity against southern armyworm third instar larvae at 1.5 ug/cm2 applied on upper surface of circular leaf disk after 2 days"}, "Epilachna varivestis [18]": {"tested_on": "Epilachna varivestis", "test": "Insecticidal activity against mexican bean beetle third instar larvae at 6 ug/cm2 applied on upper surface of circular leaf disk after 6 days"}}}
{"smiles": "C/C=C(\\C)C(=O)O[C@H]1C[C@@H](OC(C)=O)[C@@]2(C(=O)OC)CO[C@H]3[C@@H](O)[C@@](C)([C@]45O[C@@]4(C)[C@@H]4C[C@H]5O[C@@H]5OC=C[C@@]54O)[C@H]4[C@]1(CO[C@]4(O)C(=O)OC)[C@@H]32", "note": "[AZADIRACHTIN A]", "values": [{"measurement": "Activity", "setting": "Epilachna varivestis [1]", "result": 60, "unit": "%"}, {"measurement": "Activity", "setting": "Spodoptera eridania [2]", "result": 90, "unit": "%"}, {"measurement": "Activity", "setting": "Heliothis virescens [3]", "result": 60, "unit": "%"}, {"measurement": "Activity", "setting": "Heliothis virescens [4]", "result": 60, "unit": "%"}, {"measurement": "Activity", "setting": "Epilachna varivestis [5]", "result": 90, "unit": "%"}, {"measurement": "Activity", "setting": "Epilachna varivestis [6]", "result": 90, "unit": "%"}, {"measurement": "Activity", "setting": "Heliothis virescens [7]", "result": 60, "unit": "%"}, {"measurement": "Activity", "setting": "Spodoptera eridania [8]", "result": 30, "unit": "%"}, {"measurement": "Activity", "setting": "Heliothis virescens [9]", "result": 60, "unit": "%"}, {"measurement": "Activity", "setting": "Spodoptera eridania [10]", "result": 60, "unit": "%"}, {"measurement": "Activity", "setting": "Epilachna varivestis [11]", "result": 30, "unit": "%"}, {"measurement": "Activity", "setting": "Epilachna varivestis [12]", "result": 90, "unit": "%"}, {"measurement": "Activity", "setting": "Spodoptera eridania [13]", "result": 90, "unit": "%"}, {"measurement": "Activity", "setting": "Spodoptera eridania [14]", "result": 60, "unit": "%"}, {"measurement": "Activity", "setting": "Heliothis virescens [15]", "result": 60, "unit": "%"}, {"measurement": "Activity", "setting": "Heliothis virescens [16]", "result": 60, "unit": "%"}, {"measurement": "Activity", "setting": "Spodoptera eridania [17]", "result": 60, "unit": "%"}, {"measurement": "Activity", "setting": "Epilachna varivestis [18]", "result": 90, "unit": "%"}]}
{"smiles": "C=C1[C@@H]([C@@]2(C)[C@@H](OC(C)=O)CC(=O)O[C@](C)(COC(C)=O)[C@@H]2C(=O)OC)[C@@H](OC=O)[C@H](OC(=O)[C@H](O)[C@H](C)CC)[C@@]2(C)[C@H](c3ccoc3)CC(=O)[C@]12O", "note": "[PRIEURIANIN]", "values": [{"measurement": "Activity", "setting": "Epilachna varivestis [1]", "result": 0, "unit": "%"}, {"measurement": "Activity", "setting": "Spodoptera eridania [2]", "result": 0, "unit": "%"}, {"measurement": "Activity", "setting": "Heliothis virescens [3]", "result": 30, "unit": "%"}, {"measurement": "Activity", "setting": "Heliothis virescens [4]", "result": 30, "unit": "%"}, {"measurement": "Activity", "setting": "Epilachna varivestis [5]", "result": 30, "unit": "%"}, {"measurement": "Activity", "setting": "Epilachna varivestis [6]", "result": 60, "unit": "%"}, {"measurement": "Activity", "setting": "Heliothis virescens [7]", "result": 60, "unit": "%"}, {"measurement": "Activity", "setting": "Spodoptera eridania [8]", "result": 0, "unit": "%"}, {"measurement": "Activity", "setting": "Heliothis virescens [9]", "result": 0, "unit": "%"}, {"measurement": "Activity", "setting": "Spodoptera eridania [10]", "result": 0, "unit": "%"}, {"measurement": "Activity", "setting": "Epilachna varivestis [11]", "result": 0, "unit": "%"}, {"measurement": "Activity", "setting": "Epilachna varivestis [12]", "result": 60, "unit": "%"}, {"measurement": "Activity", "setting": "Spodoptera eridania [13]", "result": 30, "unit": "%"}, {"measurement": "Activity", "setting": "Spodoptera eridania [14]", "result": 0, "unit": "%"}, {"measurement": "Activity", "setting": "Heliothis virescens [15]", "result": 60, "unit": "%"}, {"measurement": "Activity", "setting": "Heliothis virescens [16]", "result": 60, "unit": "%"}, {"measurement": "Activity", "setting": "Spodoptera eridania [17]", "result": 0, "unit": "%"}, {"measurement": "Activity", "setting": "Epilachna varivestis [18]", "result": 30, "unit": "%"}]}
{"smiles": "C=C1[C@@H]([C@@]2(C)C=CC(=O)O[C@]3(C)COC(=O)C[C@H]23)[C@@H](OC=O)[C@H](OC(=O)C(O)C(C)CC)[C@@]2(C)[C@@H](c3ccoc3)C[C@H](OC(C)=O)[C@]12O", "note": "(some centres not stated) [ROHITIUKA 7]", "values": [{"measurement": "Activity", "setting": "Epilachna varivestis [1]", "result": 0, "unit": "%"}, {"measurement": "Activity", "setting": "Spodoptera eridania [2]", "result": 0, "unit": "%"}, {"measurement": "Activity", "setting": "Heliothis virescens [3]", "result": 0, "unit": "%"}, {"measurement": "Activity", "setting": "Heliothis virescens [4]", "result": 0, "unit": "%"}, {"measurement": "Activity", "setting": "Epilachna varivestis [5]", "result": 0, "unit": "%"}, {"measurement": "Activity", "setting": "Epilachna varivestis [6]", "result": 0, "unit": "%"}, {"measurement": "Activity", "setting": "Heliothis virescens [7]", "result": 60, "unit": "%"}, {"measurement": "Activity", "setting": "Spodoptera eridania [8]", "result": 0, "unit": "%"}, {"measurement": "Activity", "setting": "Heliothis virescens [9]", "result": 0, "unit": "%"}, {"measurement": "Activity", "setting": "Spodoptera eridania [10]", "result": 0, "unit": "%"}, {"measurement": "Activity", "setting": "Epilachna varivestis [11]", "result": 0, "unit": "%"}, {"measurement": "Activity", "setting": "Epilachna varivestis [12]", "result": 0, "unit": "%"}, {"measurement": "Activity", "setting": "Spodoptera eridania [13]", "result": 0, "unit": "%"}, {"measurement": "Activity", "setting": "Spodoptera eridania [14]", "result": 0, "unit": "%"}, {"measurement": "Activity", "setting": "Heliothis virescens [15]", "result": 60, "unit": "%"}, {"measurement": "Activity", "setting": "Heliothis virescens [16]", "result": 0, "unit": "%"}, {"measurement": "Activity", "setting": "Spodoptera eridania [17]", "result": 0, "unit": "%"}, {"measurement": "Activity", "setting": "Epilachna varivestis [18]", "result": 0, "unit": "%"}]}
{"smiles": "C=C1[C@H]([C@@]2(C)[C@@H](OC(C)=O)CC(=O)O[C@]3(C)COC(=O)C[C@H]23)[C@@H](OC=O)[C@H](OC(=O)CC(C)C)[C@@]2(C)[C@@H](c3ccoc3)CC(=O)[C@@]12O", "note": "[ROHITIUKIN]", "values": [{"measurement": "Activity", "setting": "Epilachna varivestis [1]", "result": 0, "unit": "%"}, {"measurement": "Activity", "setting": "Spodoptera eridania [2]", "result": 0, "unit": "%"}, {"measurement": "Activity", "setting": "Heliothis virescens [3]", "result": 0, "unit": "%"}, {"measurement": "Activity", "setting": "Heliothis virescens [4]", "result": 0, "unit": "%"}, {"measurement": "Activity", "setting": "Epilachna varivestis [5]", "result": 0, "unit": "%"}, {"measurement": "Activity", "setting": "Epilachna varivestis [6]", "result": 0, "unit": "%"}, {"measurement": "Activity", "setting": "Heliothis virescens [7]", "result": 30, "unit": "%"}, {"measurement": "Activity", "setting": "Spodoptera eridania [8]", "result": 0, "unit": "%"}, {"measurement": "Activity", "setting": "Heliothis virescens [9]", "result": 0, "unit": "%"}, {"measurement": "Activity", "setting": "Spodoptera eridania [10]", "result": 0, "unit": "%"}, {"measurement": "Activity", "setting": "Epilachna varivestis [11]", "result": 0, "unit": "%"}, {"measurement": "Activity", "setting": "Epilachna varivestis [12]", "result": 0, "unit": "%"}, {"measurement": "Activity", "setting": "Spodoptera eridania [13]", "result": 0, "unit": "%"}, {"measurement": "Activity", "setting": "Spodoptera eridania [14]", "result": 0, "unit": "%"}, {"measurement": "Activity", "setting": "Heliothis virescens [15]", "result": 0, "unit": "%"}, {"measurement": "Activity", "setting": "Heliothis virescens [16]", "result": 0, "unit": "%"}, {"measurement": "Activity", "setting": "Spodoptera eridania [17]", "result": 0, "unit": "%"}, {"measurement": "Activity", "setting": "Epilachna varivestis [18]", "result": 0, "unit": "%"}]}
